US20260376299A1, “METHODS OF TREATING ACUTE MYELOID LEUKEMIA” (The Regents of the University of Colorado, A Body Corporate, priority 2022, published 2026)

How the values were obtained:
m-LSCs = experiment: Colony-forming unit (CFU) assay on m-LSCs; type: cell-based, human; settings: for potency against m-LSCs, CdA versus BRQ and MTX / selectivity for m-LSCs over p-LSCs and normal HSPCs: CFU assay; for potency against m-LSCs, CdA versus BRQ and MTX: FIG. 6D; for selectivity for m-LSCs over p-LSCs and normal HSPCs: FIG. 6C
Experimental: FIG. 6C and FIG. 6D show the impact of chemotherapy agents AraC, DNR, DHODH inhibitor brequinar (BRQ), and TYMS inhibitor methotrexate (MTX) on the CFU potential of m-LSCs, p-LSCs and CD34+ HSPCs. […] IP, intraperitoneal; OG, oral gavage. […] Engraft % was determined by % of hCD45+/mCD45− cells within total viable bone marrow mononuclear cells. Each dot represents a unique mouse. For PDX of AML-13, control (n=11), VEN+AZA(n=9), CdA(n=10), VEN+AZA+CdA(n=10). For PDX of AML-07, control(n=11), VEN+AZA(n=9), CdA(n=12), VEN+AZA+CdA(n=9). Box plots represent median+interquartile range. Kruskal-Wallis test was used. ns, not significant. […] Engraft % was determined by % of hCD45+/mCD45− cells within total viable spleen mononuclear cells. hCD45+ count was determined by direct quantification of hCD45+/mCD45− cells within a set volume of spleen harvest using flow cytometry. Each dot represents a unique mouse. Control (n=6), VEN+AZA(n=6), CdA(n=6), VEN+AZA+CdA(n=6). Box plots represent median+/−interquartile. Kruskal-Wallis test was used. ns, not significant.
(§1) Methotrexate (MTX), brequinar (BRQ), and cladribine (CdA) were selected based on their activities in inhibiting one-carbon metabolism enzymes DHFR and TYMS, pyrimidine synthesis enzyme DHODH, and purine-based DNA/RNA synthesis, respectively. Colony-forming unit assays were performed on m-LSCs and p-LSCs isolated from Mono, Multi-MMP, and Prim specimens, along with normal CD34+ hematopoietic stem and progenitor cells (HSPC) from two healthy donors.
Freshly sorted m-LSCs from primary AMLs or prepared CD34+ HSPCs isolated from normal mobilized peripheral samples were plated in human methylcellulose (R&D systems) at about 100 K/ml and 2 K/ml, respectively. Small molecule inhibitors were directly added into the methylcellulose at the desired final concentration at the plating. Colonies were counted 2-3 weeks after the initial plating.

p-LSCs = experiment: Colony-forming unit (CFU) assay on p-LSCs; type: cell-based, human
Experimental: (§2) FIG. 6C and FIG. 6D show the impact of chemotherapy agents AraC, DNR, DHODH inhibitor brequinar (BRQ), and TYMS inhibitor methotrexate (MTX) on the CFU potential of m-LSCs, p-LSCs and CD34+ HSPCs. […] IP, intraperitoneal; OG, oral gavage. […] Engraft % was determined by % of hCD45+/mCD45− cells within total viable bone marrow mononuclear cells. Each dot represents a unique mouse. For PDX of AML-13, control (n=11), VEN+AZA(n=9), CdA(n=10), VEN+AZA+CdA(n=10). For PDX of AML-07, control(n=11), VEN+AZA(n=9), CdA(n=12), VEN+AZA+CdA(n=9). Box plots represent median+interquartile range. Kruskal-Wallis test was used. ns, not significant. […] Engraft % was determined by % of hCD45+/mCD45− cells within total viable spleen mononuclear cells. hCD45+ count was determined by direct quantification of hCD45+/mCD45− cells within a set volume of spleen harvest using flow cytometry. Each dot represents a unique mouse. Control (n=6), VEN+AZA(n=6), CdA(n=6), VEN+AZA+CdA(n=6). Box plots represent median+/−interquartile. Kruskal-Wallis test was used. ns, not significant. […]
(§3) Freshly sorted m-LSCs from primary AMLs or prepared CD34+ HSPCs isolated from normal mobilized peripheral samples were plated in human methylcellulose (R&D systems) at about 100 K/ml and 2 K/ml, respectively. […] Colonies were counted 2-3 weeks after the initial plating.

normal CD34+ HSPCs = experiment: Colony-forming unit (CFU) assay on normal CD34+ HSPCs; type: cell-based, human; settings: normal CD34+ HSPCs from two healthy donors
Experimental: as §2, §3

[1] = test system: monocytic subpopulation of engrafted AML cells; experiment: Flow analysis of residual engrafted human cells after in vivo treatment; parameters: species or system human AML in NSG-S mice
Experimental: as §1
NSG-S (NOD.Cg-Prkdcscid Il2rgtm1Wjl Tg(CMV-IL3,CSF2,KITLG)1Eav/MloySzJ) mice (The Jackson Laboratory) were used for xenograft studies in this study. Male or female mice ranging in age from 6 to 8 weeks were started on experiment. Littermates of the same sex were randomly assigned to experimental groups. NSG-S mice were pre-conditioned 24 hours prior to transplant with 30 mg/kg busulfan (Alfa Acsar) via intraperitoneal (IP) injection. The busulfan stock was made fresh at 25 mg/ml in 100% DMSO, then the stock was diluted 1:10 in pre-warmed saline (0.9% NaCl) down to 2.5 mg/ml right before use. The diluted busulfan solution was kept in 37 °C water bath before IP injection to prevent precipitation of busulfan due to low solubility. […]
About 2-4 weeks post initial transplant, tumor burden in the bone marrow was determined to be above 5% in sentinel mice. […]

AML patients = settings: cited from earlier work

In the case of `Nc1nc(Cl)nc2c1ncn2[C@H]1C[C@@H](O)[C@@H](CO)O1` (stereo in doubt) [CdA, 5-(6-Amino-2-chloro-purin-9-yl)-2-(hydroxymethyl)oxolan-3-ol], the “potency against m-LSCs, CdA versus BRQ and MTX” value (from here on “potency … CdA versus BRQ and MTX”) (m-LSCs) is reported as “outperformed BRQ and MTX in potency against m-LSCs”, the “effect on CFU potential / specificity against m-LSCs” value (m-LSCs; m-LSCs isolated from AML specimens) is reported as “remarkable specificity against m-LSCs” and the “effect on CFU potential (sparing)” value (p-LSCs) is reported as “sparing p-LSCs”. The “effect on CFU potential (sparing)” value (normal CD34+ HSPCs) was “sparing p-LSCs as well as normal HSPC controls” and the “clearance of the monocytic subpopulation” value [1] was “targeted the monocytic counterpart”.
For `Cc1c(-c2ccc(-c3ccccc3F)cc2)nc2ccc(F)cc2c1C(=O)O` [BRQ, 6-fluoro-2-(2′-fluoro-1,1′-biphenyl-4-yl)-3-methyl-4-quinolinecarboxylic acid], the “potency … CdA versus BRQ and MTX” value (m-LSCs) was “CdA also outperformed BRQ and MTX in potency against m-LSCs”.
For `CN(Cc1cnc2nc(N)nc(N)c2n1)c1ccc(C(=O)N[C@@H](CCC(=O)O)C(=O)O)cc1` [MTX, (28)-2-[(4-{[(2,4-Diaminopteridin-6-yl)methyl](methyl)amino}benzoyl)amino]pentanedioic acid], the “potency … CdA versus BRQ and MTX” value (m-LSCs) was “CdA also outperformed BRQ and MTX in potency against m-LSCs”.
For `Nc1ccn([C@@H]2O[C@H](CO)[C@@H](O)[C@@H]2O)c(=O)n1` [cytarabine, 4-amino-1-[(2R,3S,4S,5R)-3,4-dihydroxy-5-(hydroxymethyl)oxolan-2-yl]pyrimidin-2-one], the “selectivity for m-LSCs over p-LSCs and normal HSPCs” value (m-LSCs) was “selectivity was not seen”.
In the case of `COc1cccc2c1C(=O)c1c(O)c3c(c(O)c1C2=O)C[C@@](O)(C(C)=O)C[C@@H]3O[C@H]1C[C@H](N)[C@H](O)[C@H](C)O1` [daunorubicin], the “selectivity for m-LSCs over p-LSCs and normal HSPCs” value (m-LSCs) is reported as “selectivity was not seen”.
For `CC1(C)CCC(CN2CCN(c3ccc(C(=O)NS(=O)(=O)c4ccc(NCC5CCOCC5)c([N+](=O)[O-])c4)c(Oc4cnc5[nH]ccc5c4)c3)CC2)=C(c2ccc(Cl)cc2)C1` [venetoclax, 4-(4-{[2-(4-Chlorophenyl)-4,4-dimethyl-1-cyclohexen-1-yl]methyl}-1-piperazinyl)-N-({3-nitro-4-[(tetrahydro-2H-pyran-4-ylmethyl)amino]phenyl}sulfonyl)-2-(1H-pyrrolo[2,3-b]pyridin-5-yloxy)benzamide], the “responses to venetoclax in combination with backbone chemotherapy” value (AML patients; older previously untreated AML patients) is given as 60-70% and the “CR/CRi and MRD negativity rates” value (AML patients; venetoclax combined with chemotherapy regimens FLAG-Ida, CLIA or Clad-LDAC/AZA, recent clinical trials) is given as “superior CR/CRi and MRD negativity rates”.
